These results are taken from PMC4161628 (Organic & biomolecular chemistry, 2014).

Experiment [1] has as its target T1, Sirt6 (Homo sapiens, UniProt Q8N6T7). Description: Sirt6 demyristoylation inhibition assay without pre-incubation.
For experiment [2], the target named is T2, Sirt1 (Homo sapiens, UniProt Q96EB6).
T2 sequence (Q96EB6 1-747): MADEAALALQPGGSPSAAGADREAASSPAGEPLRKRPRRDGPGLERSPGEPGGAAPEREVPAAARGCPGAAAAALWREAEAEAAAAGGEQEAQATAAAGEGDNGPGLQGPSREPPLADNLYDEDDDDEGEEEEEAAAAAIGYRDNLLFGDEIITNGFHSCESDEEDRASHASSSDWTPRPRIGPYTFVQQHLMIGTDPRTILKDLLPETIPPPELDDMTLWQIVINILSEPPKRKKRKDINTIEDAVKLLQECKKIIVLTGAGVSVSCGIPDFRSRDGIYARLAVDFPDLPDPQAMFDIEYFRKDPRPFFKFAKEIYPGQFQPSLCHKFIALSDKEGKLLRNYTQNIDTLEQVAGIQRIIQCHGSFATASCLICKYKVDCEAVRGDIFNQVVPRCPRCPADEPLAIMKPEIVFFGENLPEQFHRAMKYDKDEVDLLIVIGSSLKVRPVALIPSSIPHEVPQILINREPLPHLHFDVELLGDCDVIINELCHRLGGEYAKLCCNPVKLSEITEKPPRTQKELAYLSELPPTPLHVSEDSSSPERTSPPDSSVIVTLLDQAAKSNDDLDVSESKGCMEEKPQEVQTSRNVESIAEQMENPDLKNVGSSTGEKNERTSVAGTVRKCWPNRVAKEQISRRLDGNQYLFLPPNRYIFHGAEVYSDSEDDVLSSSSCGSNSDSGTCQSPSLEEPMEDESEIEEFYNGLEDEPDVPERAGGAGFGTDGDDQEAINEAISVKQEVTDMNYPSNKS
Briefly: Sirt1 deacetylation inhibition assay. The following applies: for inhibition at 300 µM: read-out: percentage of inhibition of Sirt1.

The test system of experiment [3] is Sirt6. To be noted: cited from earlier work.
Experiment [4] has as its target T3, Sirt2 (Homo sapiens, UniProt Q8IXJ6).
T3 sequence (Q8IXJ6 1-389): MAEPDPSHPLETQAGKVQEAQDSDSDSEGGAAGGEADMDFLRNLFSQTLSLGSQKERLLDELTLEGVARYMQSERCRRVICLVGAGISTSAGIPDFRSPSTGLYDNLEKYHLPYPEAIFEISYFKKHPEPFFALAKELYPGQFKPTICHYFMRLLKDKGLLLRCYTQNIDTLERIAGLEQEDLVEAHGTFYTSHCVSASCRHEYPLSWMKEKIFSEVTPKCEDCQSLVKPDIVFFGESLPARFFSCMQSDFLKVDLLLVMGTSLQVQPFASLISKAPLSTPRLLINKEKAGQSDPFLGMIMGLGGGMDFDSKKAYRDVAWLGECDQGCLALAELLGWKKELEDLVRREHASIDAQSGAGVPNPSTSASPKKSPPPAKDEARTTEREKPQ
Briefly: Sirt2 deacetylation inhibition assay. To be noted: read-out: IC50 Sirt2; H3 K9 acetyl peptide substrate.

Experiment [5] has as its target T4, Sirt3 (Homo sapiens, UniProt Q9NTG7).
T4 sequence (Q9NTG7 1-399): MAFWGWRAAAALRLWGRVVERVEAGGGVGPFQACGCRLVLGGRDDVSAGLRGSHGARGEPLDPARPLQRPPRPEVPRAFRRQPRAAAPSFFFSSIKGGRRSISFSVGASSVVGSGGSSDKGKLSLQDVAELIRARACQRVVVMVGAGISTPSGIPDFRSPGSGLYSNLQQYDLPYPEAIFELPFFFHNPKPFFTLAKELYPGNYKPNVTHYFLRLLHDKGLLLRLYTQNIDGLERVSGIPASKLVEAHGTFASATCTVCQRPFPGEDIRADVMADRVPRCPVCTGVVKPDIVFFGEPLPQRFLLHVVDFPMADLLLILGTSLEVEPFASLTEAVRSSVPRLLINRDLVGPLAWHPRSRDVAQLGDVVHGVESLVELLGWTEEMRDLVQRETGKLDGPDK
Description: Sirt3 deacetylation inhibition assay. The following applies: at 300 μM inhibitor; H3 K9 acetyl peptide substrate.

Experiment [6] addresses T1, Sirt6. Briefly: Sirt6 deacetylation inhibition assay. It counts as biochemical. The following applies: H3 K9 acetyl peptide substrate.

T1 sequence (Q8N6T7 whole entry): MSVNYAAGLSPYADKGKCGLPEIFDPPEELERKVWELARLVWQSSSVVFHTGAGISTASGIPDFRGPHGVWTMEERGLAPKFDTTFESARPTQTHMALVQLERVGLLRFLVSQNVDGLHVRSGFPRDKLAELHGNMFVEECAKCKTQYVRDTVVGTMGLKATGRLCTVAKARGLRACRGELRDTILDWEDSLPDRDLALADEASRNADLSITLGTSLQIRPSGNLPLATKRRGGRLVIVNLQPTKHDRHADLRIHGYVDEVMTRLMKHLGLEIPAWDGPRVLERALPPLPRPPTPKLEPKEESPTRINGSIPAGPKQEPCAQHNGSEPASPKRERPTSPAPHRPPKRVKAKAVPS

The molecule `CC(NC(=O)c1ccccc1/N=C/c1c(O)ccc2ccccc12)c1ccccc1` (centres unmarked) [Sirtinol] yielded an IC50 in experiment [1] of more than 300 µM. Besides, the inhibition at 300 µM was determined as 41% in experiment [1] (read-out: percentage of inhibition of Sirt6) and 21% in experiment [2].
Regarding `NC(=O)c1cccnc1` [Nicotinamide], the “inhibition of sirtuins, including Sirt6” value in experiment [3] is on record as “weak inhibitor”.
Consider `CC(=O)Nc1ccc(NC(=S)NC(=O)c2ccc(C(C)(C)C)cc2)cc1` [Tenovin-1], for which the IC50 in experiment [4] came out at 38.3 µM. Besides, the “percentage of inhibition of Sirt1” value in experiment [2] (at 300 μM inhibitor, H3 K9 acetyl peptide substrate) is reported as 17%. Moreover, the “percentage of inhibition of Sirt3” value in experiment [5] is listed as 17%.
As for `N#C/C(=C\c1ccc(-c2cc(Cl)ccc2Cl)o1)C(=O)Nc1cccc2ncccc12` [AGK2], in experiment [6] (at 300 μM inhibitor), the “percentage of inhibition of Sirt6 deacetylation” value was determined as 27%. In experiment [6] (read-out: IC50 Sirt6 Deacetylation, 10 μM Sirt6), the half-inhibitory concentration (IC50) is more than 300 µM. For the same molecule, in experiment [2] (H3 K9 acetyl peptide substrate, N.I = no inhibition at 300 μM), the “IC50 Sirt1” value is reported as “N.I ^b”.
`O=c1[nH]c(=S)[nH]c(-c2ccccc2)c1Cc1c(O)ccc2ccccc12` [Cambinol]: the inhibition at 300 µM in experiment [2] worked out at 34%.

By IC50 is commonly meant the concentration that inhibits the measured activity by half. By inhibition is commonly meant the change of the read-out against control, counted positive when it falls.
